Source: PubChem BioAssay (NCI)
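Here, GI50 denotes the concentration required for 50% inhibition of growth. TGI: concentration producing complete growth inhibition.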

Tests used:
Assay in all cases: DTP human tumour cell line panel, 384-well format
A549 NSCLC = system: A549 NSCLC
KM12 colon = system: KM12 colon
OVCAR-8 ovarian = system: OVCAR-8 ovarian
NCI-H322M lung = system: NCI-H322M lung
HOP-62 NSCLC = system: HOP-62 NSCLC
BT-549 breast = system: BT-549 breast
CCRF-CEM leukemia = system: CCRF-CEM leukemia
HS 578T breast = system: HS 578T breast
EKVX NSCLC = system: EKVX NSCLC
COLO 205 colon = system: COLO 205 colon
UO-31 renal = system: UO-31 renal
SN12C renal = system: SN12C renal
A498 renal = system: A498 renal
786-0 renal = system: 786-0 renal
T-47D breast = system: T-47D breast
RPMI-8226 leukemia = system: RPMI-8226 leukemia
SR leukemia = system: SR leukemia
NCI-H522 lung = system: NCI-H522 lung
MCF7 breast = system: MCF7 breast
IGROV1 ovarian = system: IGROV1 ovarian
NCI-H226 lung = system: NCI-H226 lung
ACHN renal = system: ACHN renal
M14 melanoma = system: M14 melanoma
SK-OV-3 ovarian = system: SK-OV-3 ovarian
HL-60(TB) leukemia = system: HL-60(TB) leukemia
SF-268 CNS = system: SF-268 CNS
MDA-MB-435 melanoma = system: MDA-MB-435 melanoma
OVCAR-4 ovarian = system: OVCAR-4 ovarian
HCT-116 colon = system: HCT-116 colon
SW-620 colon = system: SW-620 colon
NCI-H460 NSCLC = system: NCI-H460 NSCLC
DU-145 prostate = system: DU-145 prostate
LOX IMVI melanoma = system: LOX IMVI melanoma
SK-MEL-28 melanoma = system: SK-MEL-28 melanoma
MOLT-4 leukemia = system: MOLT-4 leukemia
UACC-257 melanoma = system: UACC-257 melanoma
UACC-62 melanoma = system: UACC-62 melanoma
SNB-19 CNS = system: SNB-19 CNS
NCI-H23 lung = system: NCI-H23 lung
MDA-MB-468 breast = system: MDA-MB-468 breast
CAKI-1 renal = system: CAKI-1 renal
SK-MEL-5 melanoma = system: SK-MEL-5 melanoma
SNB-75 CNS = system: SNB-75 CNS
HOP-92 NSCLC = system: HOP-92 NSCLC
HT29 colon = system: HT29 colon
SF-295 CNS = system: SF-295 CNS
SF-539 CNS = system: SF-539 CNS

With `Cc1cc([C@H](C)Nc2nccc(N3C(=O)OC[C@@H]3[C@H](C)F)n2)ncc1-c1ccnc(C(F)(F)F)c1` the GI50 (A549 NSCLC) was 41.1 µM, the TGI (A549 NSCLC) was greater than 100 µM and the GI50 (KM12 colon) was 40.1 µM. The TGI (KM12 colon) was greater than 100 µM, the GI50 (OVCAR-8 ovarian) was 31.6 µM and the TGI (OVCAR-8 ovarian) was greater than 100 µM. It also gave a GI50 (NCI-H322M lung) of 41.5 µM, a TGI (NCI-H322M lung) greater than 100 µM and a GI50 (HOP-62 NSCLC) of 54.5 µM. For the same compound, the TGI (HOP-62 NSCLC) was greater than 100 µM, the GI50 (BT-549 breast) was 28 µM and the TGI (BT-549 breast) was greater than 100 µM. The GI50 (CCRF-CEM leukemia) was 7.56 µM, the TGI (CCRF-CEM leukemia) was 31.5 µM and the GI50 (HS 578T breast) was 16.1 µM. The TGI (HS 578T breast) was greater than 100 µM, the GI50 (EKVX NSCLC) was 11.2 µM and the TGI (EKVX NSCLC) was 98.2 µM. It also gave a GI50 (COLO 205 colon) of 64.1 µM, a TGI (COLO 205 colon) greater than 100 µM and a GI50 (UO-31 renal) of 18.8 µM. For the same compound, the TGI (UO-31 renal) was greater than 100 µM, the GI50 (SN12C renal) was 45.5 µM and the TGI (SN12C renal) was greater than 100 µM. For the same compound, the GI50 (A498 renal) was 30.4 µM, the TGI (A498 renal) was greater than 100 µM and the GI50 (786-0 renal) was 31.3 µM. The TGI (786-0 renal) was greater than 100 µM, the GI50 (T-47D breast) was 5.13 µM and the TGI (T-47D breast) was greater than 100 µM. The GI50 (RPMI-8226 leukemia) was 7.2 µM, the TGI (RPMI-8226 leukemia) was 21.2 µM and the GI50 (SR leukemia) was 11.1 µM. For the same compound, the TGI (SR leukemia) was 25.4 µM, the GI50 (NCI-H522 lung) was 13.5 µM and the TGI (NCI-H522 lung) was 58.7 µM. The GI50 (MCF7 breast) was 25.8 µM, the TGI (MCF7 breast) was greater than 100 µM and the GI50 (IGROV1 ovarian) was 28.3 µM. It also gave a TGI (IGROV1 ovarian) greater than 100 µM, a GI50 (NCI-H226 lung) of 25.3 µM and a TGI (NCI-H226 lung) greater than 100 µM. The GI50 (ACHN renal) was 40.2 µM, the TGI (ACHN renal) was greater than 100 µM and the GI50 (M14 melanoma) was 86.2 µM. It also gave a TGI (M14 melanoma) greater than 100 µM, a GI50 (SK-OV-3 ovarian) of 41.7 µM and a TGI (SK-OV-3 ovarian) greater than 100 µM. The GI50 (HL-60(TB) leukemia) was 17.5 µM, the TGI (HL-60(TB) leukemia) was 31.3 µM and the GI50 (SF-268 CNS) was 68.6 µM. The TGI (SF-268 CNS) was greater than 100 µM, the GI50 (MDA-MB-435 melanoma) was 52.7 µM and the TGI (MDA-MB-435 melanoma) was greater than 100 µM. It also gave a GI50 (OVCAR-4 ovarian) of 29.6 µM, a TGI (OVCAR-4 ovarian) greater than 100 µM and a GI50 (HCT-116 colon) of 21 µM. The TGI (HCT-116 colon) was 96.7 µM, the GI50 (SW-620 colon) was 61 µM and the TGI (SW-620 colon) was greater than 100 µM. The GI50 (NCI-H460 NSCLC) was 37.1 µM, the TGI (NCI-H460 NSCLC) was greater than 100 µM and the GI50 (DU-145 prostate) was 41.7 µM. For the same compound, the TGI (DU-145 prostate) was greater than 100 µM, the GI50 (LOX IMVI melanoma) was 53.1 µM and the TGI (LOX IMVI melanoma) was greater than 100 µM. It also gave a GI50 (SK-MEL-28 melanoma) greater than 100 µM, a TGI (SK-MEL-28 melanoma) greater than 100 µM and a GI50 (MOLT-4 leukemia) of 12.5 µM. The TGI (MOLT-4 leukemia) was 25.3 µM, the GI50 (UACC-257 melanoma) was 16.6 µM and the TGI (UACC-257 melanoma) was 51.1 µM. The GI50 (UACC-62 melanoma) was 52.2 µM, the TGI (UACC-62 melanoma) was greater than 100 µM and the GI50 (SNB-19 CNS) was 42.7 µM. It also gave a TGI (SNB-19 CNS) greater than 100 µM, a GI50 (NCI-H23 lung) of 8.03 µM and a TGI (NCI-H23 lung) greater than 100 µM. For the same compound, the GI50 (MDA-MB-468 breast) was 4.43 µM, the TGI (MDA-MB-468 breast) was 24.5 µM and the GI50 (CAKI-1 renal) was 34.4 µM. It also gave a TGI (CAKI-1 renal) greater than 100 µM, a GI50 (SK-MEL-5 melanoma) of 10.2 µM and a TGI (SK-MEL-5 melanoma) of 25.4 µM. The GI50 (SNB-75 CNS) was 29.7 µM, the TGI (SNB-75 CNS) was greater than 100 µM and the GI50 (HOP-92 NSCLC) was 29.2 µM. The TGI (HOP-92 NSCLC) was greater than 100 µM, the GI50 (HT29 colon) was 31.7 µM and the TGI (HT29 colon) was greater than 100 µM. The GI50 (SF-295 CNS) was 33.5 µM, the TGI (SF-295 CNS) was greater than 100 µM and the GI50 (SF-539 CNS) was 96.3 µM. It also gave a TGI (SF-539 CNS) greater than 100 µM.
